In PubChem BioAssay (NCI) one finds GI50 and TGI data, which are given here for 21 molecules.

Holding throughout (assay): NCI tumour cell line growth inhibition, 48 h
In assay [1] the test system is NCI-H226 lung.
Assay [2] deals with SK-MEL-28 melanoma.
Assay [3] concerns SK-OV-3 ovarian.
Assay [4] concerns HCT-116 colon.
Assay [5] relates to 786-0 renal.
The test system of assay [6] is SF-539 CNS.
In assay [7] the test system is ACHN renal.
For assay [8], the system named is IGROV1 ovarian.
In assay [9] the test system is RXF 393 renal.
Assay [10] concerns HL-60(TB) leukemia.

The structures appear in SMILES notation.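 Grown in 96-well plates, cells were treated for 48 hours with each compound at five concentrations. Insufficient inhibition: endpoint recorded as highest concentration tested. GI50 = concentration required for 50% inhibition of growth. TGI denotes the concentration required for complete inhibition of growth.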

As to `COc1cc(/C=C/c2cc(C(F)(F)F)[nH]c(=O)n2)ccc1OCc1ccccc1F`, the GI50 in assay [1] was 11.9 µM; in assay [2], 9.27 µM; in [3], 16.3 µM; in assay [4], 7.12 µM; in assay [5] it was 16.2 µM; in [6], 3.68 µM. The GI50 in assay [7] is 12.7 µM; in assay [8], 12.4 µM; in assay [9] it was 2.4 µM; in assay [10], 9.25 µM. The TGI in assay [1] came to 43.2 µM; in assay [2] it was 24.7 µM; in [3], 50.8 µM; in assay [4], 19.6 µM; in [5] it was 33.1 µM; in [6], 13.8 µM. The TGI in assay [7] was determined as 38.7 µM; in [8], 42 µM; in assay [9] it was 8.78 µM; in [10] it was 68.2 µM.

For `COc1cc(-c2cc(=O)c3cc4c(cc3[nH]2)OCO4)cc(OC)c1OC`, the GI50 in assay [1] is > 100 µM; in [4], 73.7 µM; in assay [9] it was 22.1 µM. The TGI in [1], in assay [2], in [3], in assay [4], in assay [5] and in assay [6] was > 100 µM in each case. Also, the TGI in assay [7] was > 100 µM; in assay [8], > 100 µM; in assay [9], 60.5 µM; in [10], > 100 µM.

Consider `CCOc1ccc(/C=C/C(=O)c2ccccc2)cc1`, for which the GI50 in [1] was 24.7 µM; in [2] it was 19.8 µM; in assay [3], 21.5 µM; in assay [4], 12.9 µM; in assay [5] it was 20.6 µM; in assay [6], 19.4 µM. The GI50 in assay [7] is 18.1 µM; in assay [8] it was 16.3 µM; in assay [9] it was 15.2 µM; in assay [10], 25 µM. The TGI worked out at 75.2 µM in [1]; 39.6 µM in assay [2]; 56 µM in assay [3]; 27.4 µM in [4]; 39.1 µM in assay [5]; 45.5 µM in assay [6]. The TGI in assay [7] was found to be 34.9 µM; in assay [8] it was 39.7 µM; in assay [9], 29.2 µM; in [10] it was 94.5 µM.

In the case of `O=C(Nc1ccccc1C(F)(F)F)c1cccc(NC2=C(Cl)C(=O)N(Cc3ccccc3)C2=O)c1`, the GI50 was 15.4 µM in assay [1]; > 90.2 µM in [2]; 38.9 µM in assay [3]; 14.9 µM in assay [4]; 12.4 µM in assay [5]; 12.1 µM in assay [6]. Further, the GI50 in assay [7] is 5.39 µM; in assay [8] it was 0.985 µM; in [9] it was 3.13 µM; in assay [10], 31.8 µM. The TGI in [1] is 52.9 µM; in assay [2] it was > 100 µM; in [3], > 100 µM; in [4] it was > 55.1 µM; in assay [5], > 40.1 µM; in assay [6], 34.8 µM. Also, the TGI in assay [7] is 26.9 µM; in assay [8], 18.8 µM; in [9], 12.3 µM; in assay [10], > 100 µM.

Take `COc1ccc(-c2c(C3=NCCN3)nnn2-c2ccccc2)cc1`: the TGI in [1], in assay [2], in assay [3], in [4], in assay [5] and in assay [6] was > 100 µM in each case. In addition, the TGI in assay [7], in assay [8], in assay [9] and in assay [10] was > 100 µM throughout.

`CC(=O)CC1CCC(=O)CCC(=O)OC(CC(C)=O)CCC(=O)CCC(=O)O1` (stereo unspecified): the TGI in [1], in assay [2], in [3], in [4], in assay [5] and in assay [6] was > 100 µM throughout. The TGI in assay [7], in [8], in [9] and in assay [10] was > 100 µM in each case.

With `Cc1nn(C(=O)c2ccccc2O)c2c1C(c1ccccc1)SC(N)=N2` (stereo unspecified), the TGI in assay [1] was 7.38 µM; in [2] it was > 10 µM; in assay [3] it was > 10 µM; in assay [4], > 10 µM; in [5], > 10 µM; in [6], 0.621 µM. In addition, the TGI was > 10 µM in assay [7], 6.96 µM in assay [8], > 10 µM in assay [9] and 3.58 µM in assay [10].

On to `COc1cc(OC)c(/C=C/c2ccc3ccccc3[n+]2C)c(OC)c1`, for which the GI50 in [1] was 1.42 µM; in assay [2], 0.891 µM; in assay [3] it was 1.37 µM; in assay [4], 0.392 µM; in assay [5], 3.16 µM; in [6], 0.422 µM. The GI50 in assay [7] is 4.32 µM; in assay [8], 1.21 µM; in assay [9] it was 2.06 µM; in assay [10], 0.363 µM. In addition, the TGI in assay [1] turned out to be 18.5 µM; in assay [2] it was 3.62 µM; in assay [3] it was 26 µM; in assay [4] it was 11.7 µM; in assay [5], 16.8 µM; in assay [6], 5.78 µM. Besides, the TGI in assay [7] is > 75.5 µM; in [8] it was 13.6 µM; in assay [9], 11.7 µM; in [10], 2.92 µM.

`Cc1c(CCCl)c(=O)n2c([nH]c3ccccc32)c1C#N`: the TGI in assay [1] was found to be 4.84 µM; in assay [2], 3.72 µM; in [3], 3.84 µM; in assay [4] it was 1.93 µM; in [5], 2.84 µM; in assay [6], 2.79 µM. Besides, the TGI in [7] was 2.81 µM; in assay [8] it was 3.4 µM; in assay [9], 3.8 µM; in assay [10], > 10 µM.

Consider `COc1cc([C@H](C)c2ccc3ccccc3c2)cc(OC)c1OC`, for which the GI50 in [1] was 2.94 µM; in assay [2], 5.25 µM; in assay [3], 0.594 µM; in assay [5], 0.536 µM; in assay [6], 0.297 µM; in assay [7], 0.857 µM. For the same molecule, the GI50 in assay [8] was 0.804 µM; in [9], 0.22 µM; in [10] it was 0.184 µM. The TGI in [1] is > 100 µM; in assay [2] it was > 100 µM; in assay [3] it was 61.6 µM; in assay [5], 20 µM; in [6], > 100 µM; in assay [7], > 100 µM. The results for the TGI in assay [8], in assay [9] and in assay [10] were > 100 µM, > 100 µM and 0.745 µM, respectively.

For `COC(=O)CCC/C=C\C[C@H]1C=CC(=O)/C1=C/C[C@@H](O)CCc1cccc(C(F)(F)F)c1`, the GI50 in [2] was 1.98 µM; in assay [3], 4.94 µM; in assay [4] it was 1.78 µM; in assay [5] it was 2.46 µM; in assay [6] it was 2.9 µM; in assay [7], 1.83 µM. Also, the GI50 in assay [8] was 3.71 µM; in assay [9], 2.08 µM; in [10], 2.53 µM. Moreover, the TGI amounted to 5.2 µM in [2]; 16.5 µM in assay [3]; 4 µM in [4]; 5.57 µM in assay [5]; 9.24 µM in [6]; 3.54 µM in assay [7]. In addition, the TGI in assay [8] came out at 13.9 µM; in [9] it was 3.79 µM; in [10], 7.17 µM.

`COc1ccc2c(c1)sc1nc(-c3ccccc3)c(-c3ccsc3)n12`: the GI50 in [1] is 2.17 µM; in assay [2], 4.9 µM; in assay [3], 3.48 µM; in assay [4], 4.18 µM; in assay [5], 7.58 µM; in assay [6], 2.62 µM. For the same molecule, the GI50 in assay [7] is 6.76 µM; in assay [8], 6.53 µM; in [10], 3.95 µM. For the same molecule, the TGI is 18.1 µM in assay [1]; > 100 µM in assay [2]; 64.6 µM in assay [3]; > 100 µM in assay [4]; > 100 µM in assay [5]; > 100 µM in assay [6]. Further, the TGI in [7] is > 100 µM; in [8] it was > 100 µM; in assay [10], 92.7 µM.

For `CC(=O)Oc1cc(C)ccc1[C@]1(C)CC[C@H](C)/C1=C\Br`, the GI50 is 3.62 µM in assay [2]; 2.43 µM in assay [3]; 4.44 µM in assay [4]; 4.09 µM in [5]; 2.32 µM in assay [6]; 5.7 µM in assay [7]. In addition, the figures for the GI50 in [8], in [9] and in assay [10] were 7.6 µM, 3.86 µM and 3.41 µM, respectively. The TGI is 15.6 µM in assay [2]; 7.65 µM in assay [3]; 18.8 µM in [4]; 14.3 µM in assay [5]; 5.1 µM in [6]; 20.1 µM in assay [7]. For the same molecule, the TGI was found to be 26.6 µM in assay [8], 15.9 µM in assay [9] and 15 µM in assay [10].

`Cc1cc2nc3c(=O)n(C)c(=O)nc-3n(-c3ccc(Cl)cc3)c2cc1C`: the TGI in [1] was found to be 37.6 µM; in assay [2], 33.4 µM; in assay [3], 67.4 µM; in assay [4] it was 33.6 µM; in [5] it was 43.3 µM; in [6], 25.4 µM. Also, the TGI in [7] is 24.7 µM; in [8], 38.8 µM; in assay [10], 24.3 µM.

For the molecule `N#CCCc1nc2ccc(Br)cc2c(=O)n1CCO`, the TGI in [1], in [2], in assay [3], in [5], in [6] and in assay [8] was > 100 µM throughout. For the same molecule, the TGI in assay [9] and in [10] was > 100 µM in each case.

Regarding `COP1(=O)CC2C(Cl)(Cl)C2(C)C1` (stereo unspecified), the TGI in [1], in assay [2], in assay [3], in assay [4], in assay [5] and in assay [6] was > 100 µM each time. In addition, the TGI in [8], in assay [9] and in assay [10] was > 100 µM each time.

Regarding `CCC(=O)c1cn(C)c(=O)c2ccccc12`, the TGI in assay [1], in assay [2], in assay [3], in assay [5], in [6] and in assay [7] was > 100 µM each time. The TGI in [8], in [9] and in [10] was > 100 µM in each case.

For the molecule `NC(=O)c1c[se]c(C2OC(CO)C(O)C2O)n1` (stereo unspecified), the TGI in assay [1] is > 100 µM; in assay [2] it was > 100 µM; in assay [3], > 100 µM; in [4], 55 µM; in assay [5], > 100 µM; in assay [6], > 71.8 µM. Further, the TGI in assay [7], in assay [8] and in assay [10] was > 100 µM in each case.

In the case of `Cc1cc2c(CC(=O)O)[nH]nc2c(C(=O)O)c1C`, the TGI in assay [1], in assay [2], in assay [3], in assay [4], in assay [5] and in assay [6] was > 100 µM each time. The TGI in assay [7], in [9] and in assay [10] was > 100 µM each time.

Regarding `Cc1nc2ccc(C(F)(F)F)cc2nc1Nc1ccc(Cl)c(Cl)c1`, the TGI in assay [1] came to 39.1 µM; in assay [2], 24.7 µM; in [3], 36 µM; in assay [4], 22.2 µM; in assay [5], 16.1 µM; in assay [6], 27.5 µM. In addition, the values for the TGI in assay [7], in assay [9] and in assay [10] were 23.4 µM, 19.1 µM and 24 µM, respectively.

For `CCOc1ccccc1NC(=O)/C=C1\NC(=O)CS1`, the TGI in assay [1], in assay [2], in [3], in assay [4], in assay [5] and in [6] was > 100 µM throughout. The TGI in [8], in assay [9] and in assay [10] was > 100 µM in each case.
